Converted amounts (≈) assume the structure as drawn. Read-outs that look alike come from different tables or passages of the source.
Experiment: Solubility of Compound I in various vehicles (high throughput screening, HPLC assay of solution phase)
Format: physicochemical
Method: Solubility of Compound 1 was determined using a high throughput screening method.
The above solubilities were determined by adding Compound I to the test system and stirred. Following an equilibrium time, the material in the solution phase is assayed by HPLC to determine solubility.

solubility (aqueous with cosolvent or surfactant or cyclodextrin, thermodynamic from solid, vehicle CREMOPHOR EL (aqueous solution), free base, read-out: Solubility in vehicle at ambient temperature): < 40 µg/mL
solubility (aqueous with cosolvent or surfactant or cyclodextrin, thermodynamic from solid, vehicle Methyl Cellulose (aqueous solution), free base, read-out: Solubility in vehicle at ambient temperature): < 40 µg/mL
solubility (aqueous with cosolvent or surfactant or cyclodextrin, thermodynamic from solid, vehicle Methyl Cellulose with SDS (aqueous solution), free base, read-out: Solubility in vehicle at ambient temperature): < 40 µg/mL
solubility (aqueous with cosolvent or surfactant or cyclodextrin, thermodynamic from solid, vehicle POLYSORBATE 80 (aqueous solution), free base, read-out: Solubility in vehicle at ambient temperature): < 40 µg/mL
solubility (aqueous with cosolvent or surfactant or cyclodextrin, thermodynamic from solid, vehicle Sodium lauryl sulfate (aqueous solution), free base, read-out: Solubility in vehicle at ambient temperature): < 40 µg/mL
solubility (aqueous with cosolvent or surfactant or cyclodextrin, thermodynamic from solid, vehicle Vitamin E TPGS (aqueous solution), free base, read-out: Solubility in vehicle at ambient temperature): < 40 µg/mL
solubility (fassgf or other biorelevant, thermodynamic from solid, vehicle Simulated gastric fluids (fasted and fed), free base, read-out: Solubility in vehicle at ambient temperature): < 40 µg/mL
Solubility in vehicle at ambient temperature (vehicle 0.01N HCl/34 mMNaCl, free base): 0.007 mg/g
Solubility in vehicle at ambient temperature (vehicle IMWITOR 742, free base): 318 mg/g
Solubility in vehicle at ambient temperature (vehicle IMWITOR:TWEEN (1:1), free base): >240 mg/g
Solubility in vehicle at ambient temperature (vehicle MIGLYOL 812, free base): 86 mg/g
Solubility in vehicle at ambient temperature (vehicle Water, free base): 0.001 mg/g
solubility (water, statement in description, read-out: solubility in water): 1 µg/mL (≈ 1.87 µM)
SMILES: CC(C)(F)[C@H](c1cc(F)cc(C#N)c1)C1CN([C@@H](c2ccc(Cl)cc2)c2cccc(-c3n[nH]c(=O)o3)c2)C1 [Compound I, 3-[(1S)-1-(1-{(S)-(4-chlorophenyl)[3-(5-oxo-4,5-dihydro-1,3,4-oxadiazol-2-yl)phenyl]methyl}azetidin-3-yl)-2-fluoro-2-methylpropyl]-5-fluorobenzonitrile]

Reference: patent US20100081642A1, “CB-1 RECEPTOR MODULATOR PHARMACEUTICAL FORMULATIONS” (priority 2008, published 2010)
